Counter-ions that a name gives are not always drawn.

In this test the target is T1, AT1 receptor (Rattus norvegicus, UniProt P25095).
T1 construct: rat liver membranes; from tissue; host or cells: rat liver membranes
T1 sequence (P25095 1-359): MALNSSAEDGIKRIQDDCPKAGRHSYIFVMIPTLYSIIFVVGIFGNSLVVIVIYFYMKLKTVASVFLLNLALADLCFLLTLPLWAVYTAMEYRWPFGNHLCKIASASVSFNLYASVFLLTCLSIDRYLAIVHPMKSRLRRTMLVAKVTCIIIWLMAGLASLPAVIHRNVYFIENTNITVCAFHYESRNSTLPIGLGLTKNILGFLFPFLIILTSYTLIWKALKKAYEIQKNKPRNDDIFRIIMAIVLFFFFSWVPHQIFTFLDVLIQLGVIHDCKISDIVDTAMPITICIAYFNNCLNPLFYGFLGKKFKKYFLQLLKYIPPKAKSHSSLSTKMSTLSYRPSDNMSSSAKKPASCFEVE
The experiment in a line: [^3 H]angiotensin II binding to rat liver membranes (AT1 test). As to conditions: inhibition of [^3 H]angiotensin II binding. Here is the method: The compounds of Formula I or Ia are antagonists of angiotensin II. Dudley, D. T., et al, Molecular Pharmacology 1990;38:370-377 reported the existence of 2 subclasses of angiotensin II binding sites in rabbit adrenal gland and uterus and in the rat liver which differ in their tissue distribution and affinity for various peptide and nonpeptide ligands. Thus, the compounds of Formula I or Ia were tested for their ability to inhibit [^3 H]angiotensin II binding to rat liver membranes (AT1 test) according to the methods described by Dudley, D. T., et al, Molecular Pharmacology 1990;38:370-7. […] It is well established that compounds which antagonize the effect of angiotensin II at the AT1 receptor have value for treatment of hypertension and heart failure.
The IC50 is the midpoint of a concentration-inhibition curve. High values mean weaker potency, low ones greater potency. `CCCCc1ncc(/C=C2/C(=O)N(CCCC)C(=O)N2Cc2sccc2C)n1Cc1ccc(C(=O)OC)cc1` [Example 72, Methyl Z-4-[[2-butyl-5-[[1-butyl-3-[(3-methyl-2-thienyl)methyl]-2,5-dioxo-4-imidazolidinylidene]methyl]-1H-imidazol-1-yl]methyl]benzoate hydrochloride]: the IC50 was determined as 23.9 nM.

Compound `CCCCc1ncc(/C=C2/C(=O)N(CCCC)C(=O)N2Cc2ccc(C)s2)n1Cc1ccc(C(=O)O)cc1` [Example 74, Z-4-[[2-butyl-5-[[1-butyl-3-[(5-methyl-2-thienyl)methyl]-2,5-dioxo-4imidazolidinylidene]methyl]-1H-imidazol-1-yl]methyl]benzoic acid] yielded an IC50 of 0.6 nM.

Compound `CCCCc1ncc(/C=C2/C(=O)N(CCCC)C(=O)N2Cc2cccs2)n1Cc1ccc(C(=O)O)cc1` [Example 75, Z-4-[[2-butyl-5-[[1-butyl-2,5-dioxo-3-(2-thienylmethyl)-4-imidazolidinylidene]methyl]-1H-imidazol-1-yl]methyl]benzoic acid] returned an IC50 of 0.64 nM.

In turn, `CCCCc1ncc(/C=C2/C(=O)NC(=O)N2CCCC)n1Cc1ccc(-c2nn[nH]n2)cc1` [Example 76a, Z-1-Butyl-5-[[2-butyl-3-[[4-(1H-tetrazol-5-yl)phenyl]methyl]-3H-imidazol-4-yl]methylene]-2,4-imidazolidinedione] gave an IC50 of 3.36 nM.

`CCCCc1ncc(/C=C2\C(=O)NC(=O)N2CCCC)n1Cc1ccc(-c2nn[nH]n2)cc1` [Example 76b, E-1-Butyl-5-[[2-butyl-3-[[4-(1H-tetrazol-5-yl)phenyl]methyl]-3H-imidazol-4-yl]methylene]-2,4-imidazolidinedione] showed an IC50 of 2.48 nM.

`CCCCc1ncc(/C=C2/C(=O)N(CCCC)C(=O)N2Cc2ccc(Br)s2)n1Cc1ccc(C(=O)OC)cc1` [Example 77, Methyl Z-4-[[5-[[3-[(5-bromo-2-thienyl)methyl]-1-butyl-2,5-dioxo-4-imidazolidinylidene]methyl]-2-butyl-1H-imidazol-1-yl]methyl]benzoate monohydrochloride] displayed an IC50 of 17.8 nM.

`CCCCc1ncc(/C=C2/C(=O)N(CCCC)C(=O)N2Cc2cc(Br)cs2)n1Cc1ccc(C(=O)OC)cc1` [Example 78, Methyl Z-4-[[5-[[3-[(4-bromo-2-thienyl)methyl]-1-butyl-2,5-dioxo-4-imidazolidinylidene]methyl]-2-butyl-1H-imidazol-1-yl]methyl]benzoate monohydrochloride] gave a half-inhibitory concentration (IC50) of 21.9 nM.

`CCCCc1ncc(/C=C2/C(=O)N(CCCC)C(=O)N2CCc2cccs2)n1Cc1ccc(C(=O)OC)cc1` [Example 79, Methyl Z-4-[[2-butyl-5-[[1-butyl-2,5-dioxo-3-[2(2-thienyl)ethyl]-4-imidazolidinylidene]methyl]-1H-imidazol-1-yl]methyl]benzoate monohydrochloride] returned an IC50 of 14.5 nM.

In turn, `CCCCc1ncc(/C=C2/C(=O)N(CCCC)C(=O)N2CCc2ccsc2)n1Cc1ccc(C(=O)OC)cc1` [Example 80, Methyl Z-4-[[2-butyl-5-[[1-butyl-2,5-dioxo-3-[2-(3-thienyl)ethyl]-4-imidazolidinylidene]methyl]-1H-imidazol-1-yl]methyl]benzoate monohydrochloride] had a half-maximal inhibitory concentration (IC50) of 14.6 nM.

For `CCCCc1ncc(/C=C2/C(=O)N(CCCC)C(=O)N2Cc2csc(Br)c2)n1Cc1ccc(C(=O)OC)cc1` [Example 81, Methyl Z-4-[[5-[[3-[(5-bromo-3-thienyl)methyl]-1-butyl-2,5-dioxo-4-imidazolidinylidene]methyl]-2-butyl-1H-imidazol-1-yl]methyl]benzoate monohydrochloride], the IC50 was determined as 25.4 nM.

Compound `CCCCc1ncc(/C=C2\NC(=O)N(CCCC)C2=O)n1Cc1ccc(C2(C(=O)OC)CCCC2)cc1` [Example 83, Methyl Z-1-[4-[[2-butyl-5-[(1-butyl-2,5-dioxo-4-imidazolidinylidene)methyl]-1H-imidazol-1-yl]methyl]phenyl]cyclopentanecarboxylate] had an IC50 above 1000 nM.

For the compound `CCCCc1ncc(/C=C2/C(=O)N(CCCC)C(=O)N2Cc2csc(C)n2)n1Cc1ccc(C2(C(=O)OC)CCCC2)cc1` [Example 84, Methyl Z-1-[4-[[2-butyl-5-[[1-butyl-[3(2-methyl-4-thiazoly)methyl]-2,5-dioxo-4-imidazolidinylidene]methyl]-1H-imidazol-1-yl]methyl]phenyl]cyclopentane-carboxylate monohydrochloride], the IC50 came out at 124 nM.

For `CCCCc1ncc(/C=C2/C(=O)N(CCCC)C(=O)N2Cc2csc(C)n2)n1Cc1ccc(C2(C(=O)O)CCCC2)cc1` [Example 85], the IC50 worked out at 1.86 nM.

Compound `CCCCc1ncc(/C=C2\C(=O)N(Cc3csc(C)n3)C(=O)N2CCCC)n1Cc1ccc(C(=O)OC)cc1` [Example 86, Methyl E-4-[[2-butyl-5-[[3-butyl-1-[(2-methyl-4-thiazolyl)methyl]-2,5-dioxo-4-imidazolidinylidene]methyl]-1H-imidazol-1-yl]methyl]benzoate dihydrochloride] came in with an IC50 of 4.58 nM.

Consider `CCCCc1ncc(/C=C2/C(=O)NC(=O)N2CCCC)n1Cc1ccc(C(=O)OC)cc1Cl` [Example 87a, Methyl Z-4-[[2-butyl-5-[(3-butyl-2,5-dioxo-4-imidazolidinylidene)methyl]-1H-imidazol-1-yl]methyl]-3-chlorobenzoate], for which the IC50 was 10 nM.

`CCCCc1ncc(/C=C2\C(=O)NC(=O)N2CCCC)n1Cc1ccc(C(=O)OC)cc1Cl` [Example 87b] had an IC50 of 7.32 nM.

On to `CCCCc1ncc(/C=C2/C(=O)NC(=O)N2CCCC)n1Cc1ccc(C2(C(=O)OC)CCCCC2)cc1` [Example 88a], for which the IC50 is 276 nM.

`CCCCc1ncc(/C=C2\C(=O)NC(=O)N2CCCC)n1Cc1ccc(C2(C(=O)OC)CCCCC2)cc1` [Example 88b, Methyl E-1-[4-[[2-butyl-5-[[3-butyl-2,5dioxo-4-imidazolidinylidene]methyl]-1H-imidazol-1-yl]methyl]phenyl]cyclohexanecarboxylate] yielded an IC50 of 528 nM.

As to `CCCCc1ncc(/C=C2/C(=O)N(CC3CC3)C(=O)N2Cc2cccs2)n1Cc1ccc(C(=O)OC)cc1` [Example 89, Methyl Z-4-[[2-butyl-5-[[1-(cyclopropylmethyl)-2,5-dioxo-3-(2-thienylmethyl)-4-imidazolidinylidene]methyl]-1H-imidazol-1-yl]methyl]benzoiate monohydrochloride], the IC50 is 2.59 nM.

Compound `CCCCc1ncc(/C=C2/C(=O)NC(=O)N2CCCC)n1Cc1ccc(-c2ccccc2-c2nn[nH]n2)cc1` [Example 91, Z-1-Butyl-5-[[2-butyl-3-[[2'-(1H-tetrazol-5-yl)[1,1'-biphenyl]-4-yl]methyl]-3H-imidazol-4-yl]methylene]-2,4-imidazolidinedione] had an IC50 of 1.37 nM.

Take `CCCCc1ncc(/C=C2\C(=O)NC(=O)N2CCCC)n1Cc1ccc(-c2ccccc2-c2nn[nH]n2)cc1` [Example 92]: the IC50 stood at 2.72 nM.

Consider `CCCCc1ncc(/C=C2/C(=O)NC(=O)N2C)n1Cc1ccc(-c2ccccc2-c2nnn[nH]2)cc1` [Example 93, Z-5-[[2-butyl-3-[[2'-(1H-tetrazol-5-yl)[1,1 '-biphenyl]-4-yl]methyl]-3H-imidazol-4-yl]methylene]1-methyl-2,4-imidazolidinedione], for which the IC50 stood at 5.51 nM.

Turning to `CCCCc1ncc(/C=C2\C(=O)NC(=O)N2C)n1Cc1ccc(-c2ccccc2-c2nnn[nH]2)cc1` [Example 94, E-5-[[2-butyl-3-[[2'-(1H-tetrazol-5-yl)[1,1'-biphenyl]-4-yl]methyl]-3H-imidazol-4-yl]methylene]1-methyl-2,4-imidazolidinedione], the IC50 amounted to 8.57 nM.

Compound `CCCCc1ncc(CC2C(=O)NC(=O)N2CCCC)n1Cc1ccc(-c2ccccc2-c2nnn[nH]2)cc1` (stereo not shown) [Example 95, 1-Butyl-5-[[2-butyl-3-[[2'-(1H-tetrazol-5-yl)[1,1'-biphenyl]-4yl]methyl]-3H-imidazol-4-yl]methyl]-2,4-imidazolidinedione] registered an IC50 of 2.67 nM.

`CCCCc1ncc(/C=C2/C(=O)NC(=O)N2CCCC)n1Cc1ccc(-c2ccccc2C(=O)OC)cc1` [Example 96a]: the IC50 was 15.9 nM.

Take `CCCCc1ncc(/C=C2\C(=O)NC(=O)N2CCCC)n1Cc1ccc(-c2ccccc2C(=O)OC)cc1` [Example 96b, Methyl E 4'-[[2-butyl-5-[(3-butyl-2,5-dioxo-4-imidazolidinylidene)methyl]-1H-imidazol-1-yl]methyl][1,1'-biphenyl]-2-carboxylate]: the IC50 stood at 9.86 nM.

Take `CCCCc1nc(Br)c(/C=C2/C(=O)NC(=O)N2CCCC)n1Cc1ccc(-c2ccccc2C(=O)OC)cc1` [Example 97a, Methyl Z-4'-[[4-bromo-2-butyl-5-[(3-butyl-2,5-dioxo-4-imidazolidinylidene)methyl]-1H-imidazol-1-yl]methyl][1,1'-biphenyl]-2-carboxylate]: the IC50 turned out to be 700 nM.

`CCCCc1nc(Br)c(/C=C2\C(=O)NC(=O)N2CCCC)n1Cc1ccc(-c2ccccc2C(=O)OC)cc1` [Example 97b, Methyl E-4'-[[4-bromo-2-butyl-5-[(3-butyl-2,5-dioxo-4-imidazolidinylidene)methyl]-1H-imidazol-1-yl]methyl][1,1'-biphenyl]-2-carboxylate] yielded an IC50 of 500 nM.
